From the supplement of paper PMC5770543
± gives the standard deviation.

Experiments:
[1] = tested on: Plasmodium falciparum 3D7; test: EC50 growth inhibition (60 h, SYBR Green); conditions: stage: ring-stage start
[2] = tested on: Toxoplasma gondii RH tachyzoites; test: % growth inhibition vs DMSO (48 h luciferase); higher = more inhibition; conditions: 10 µM;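 further: tested in triplicate wells of 96-well plates on confluent HFF monolayers, with 1% DMSO wells as negative control in four replicates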
[3] = tested on: Plasmodium falciparum 3D7; test: % inhibition of schizont-to-ring transition vs DMSO; higher = more inhibition
How it was run: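 Tightly synchronised P. falciparum schizonts (about 40–42 hours post-invasion, 1% parasitemia, 2.5% hematocrit, AlbuMAX-supplemented RPMI) were exposed to compound at 1, 3 or 10 µM, with vehicle and positive controls. Cells were glutaraldehyde-fixed, Triton-permeabilised, stained with Hoechst 33342 and counted by flow cytometry (at least 100,000 events). Schizont-to-ring transition inhibition is new ring formation relative to vehicle controls, averaged over three experiments.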

Row | Compound | EC50 growth inhibition [1] | % growth inhibition [2] | % inhibition of schizont-to-ring transition ([3]; 1 µM) | % inhibition of schizont-to-ring transition ([3]; 3 µM) | % inhibition of schizont-to-ring transition ([3]; 10 µM)
1 | COc1cc(SC)ccc1C(=O)N1CCCC(C)C1 (configuration not stated) | 3.24 µM | 33.1 ± 4.9% | 0.295% | < 0% | 12.1%
2 | Cc1[nH]c(-c2ccc(F)cc2)cc1C(=O)NC1CCN(Cc2ccccc2)CC1 | 0.58 µM | 44.1 ± 26% | 25.3% | 47% | 64.1%
3 | CCCc1c(CC)c(=N)c2ccccc2n1C | 6.03 µM | 38.7 ± 9.2% | 7.3% | 8.61% | 31%
4 | O=C(NC1CCCC1)c1ccc(N2CCC(NCc3cccc(C(F)(F)F)c3)CC2)cc1 | 2.01 µM | 74.7 ± 1.2% | 0.815% | 7.92% | 41.6%
5 | Oc1c(CN2CCN(c3ccccc3F)CC2)cc(Br)c2cccnc12 | 7.42 µM | 74.2 ± 13% | 7.79% | 26.8% | 49.7%
6 | COc1ccc(-c2cn3c(C(=O)Nc4ccccc4Cl)c(-c4ccccc4)c4c3n2CCCC4)cc1 | 7.13 µM | 42.7 ± 28% | 12.5% | 30.4% | 62.3%
7 | Cc1ccc(-c2cc3c(SCC(=O)Nc4cc(C(F)(F)F)ccc4Cl)nccn3n2)cc1 | 2.14 µM | 48.6 ± 19% | 23.9% | 24.5% | 30.8%
8 | O=C(c1ccccc1F)N(Cc1ccc(Cl)cc1)c1ccccn1 | 5.7 µM | 82.2 ± 3.3% | 2.8% | 7.52% | 13.9%
9 | Nc1ccc(-c2nc3cc(Cc4ccc5[nH]c(-c6ccc(N)cc6)nc5c4)ccc3[nH]2)cc1 | 0.218 µM | 59.1 ± 11% | 51.3% | 70.1% | 76%
10 | COc1cccc(C(=O)Nc2ccc(-c3nc4ccccc4[nH]3)cc2)c1 | 1.62 µM | 53.9 ± 1.5% | 3.81% | 12.6% | 34.9%
11 | COc1ccc(C(=O)C2CC2c2ccc(Cl)cc2)cc1 (configuration not stated) | 2.7 µM | 22 ± 8.6% | 8.22% | 39.3% | 58.3%
12 | COc1ccc(C=C2SC(=N)N(c3ccccc3OC)C2=O)cc1 | 1.37 µM | 58.7 ± 3.4% | 19.9% | 35.6% | 49.7%
13 | CC(C)CCNCC(O)Cn1c2ccccc2c2ccccc21 (configuration not stated) | 0.52 µM | 77.4 ± 2.5% | 9.61% | 49.4% | 71.7%
14 | CCOC(=O)C1=C(C)N=c2sc(=Cc3cc(Cl)ccc3O)c(=O)n2C1c1ccc(OC)cc1 (configuration not stated) |  | 59.4 ± 6.4% | 0.526% | 46.2% | 61.3%
15 | O=C(Nc1ccc(C23CC4CC(CC(c5ccccc5)(C4)C2)C3)cc1)c1cccs1 | 7.3 µM | 76.8 ± 7.4% | 17.5% | 21.8% | 42.3%
16 | CCOc1cc2c(cc1OCC)C(c1cc(Cl)ccc1O)NCC2 (configuration not stated) | 1.8 µM | 46.8 ± 4.8% | 3.63% | 17.7% | 64.1%
17 | O=C(NNc1cc(N2CCCC2)nc(N2CCCC2)n1)c1ccccc1 | 6.54 µM | 27.4 ± 0.88% | 16.2% | 24.6% | 62.1%
18 | O=C(NC1CCN(Cc2ccccc2)CC1)c1cc(-c2ccncc2)nc2ccc(Cl)cc12 | 1.92 µM | 54.7 ± 2.7% | 22.1% | 60.9% | 63.4%
19 | COc1cccc(C=Cc2nc(=O)c3ccccc3o2)c1OC | 0.317 µM | 70.48 ± 0.68% | 34.9% | 40.3% | 49.7%

Row | Compound | EC50 growth inhibition [1] | % growth inhibition [2] | % inhibition of schizont-to-ring transition ([3]; 1 µM) | % inhibition of schizont-to-ring transition ([3]; 3 µM) | % inhibition of schizont-to-ring transition ([3]; 10 µM)
20 | CN1CCN(c2c3c(c(C#N)c4nc5ccccc5n24)CCC3)CC1 |  | 39.4 ± 4.5% | < 0% | 5.66% | 21.3%
21 | CCOc1ccc(CCNC(=O)c2cccs2)cc1OCC | 0.691 µM | 72 ± 8.3% | 10.1% | 47% | 68.3%
22 | CCOC(=O)c1c[nH]c2c(CC)cccc2c1=O | 3.28 µM | 29.3 ± 36% | 28.5% | 28.8% | 40.9%
23 | COc1ccc(-c2nc(NC(=O)CS(=O)(=O)c3ccc(F)cc3)sc2C)cc1 | 0.405 µM | 69.4 ± 1.6% | 9.86% | 32.3% | 43.6%
24 | CCOC(=O)c1cnc2ccc(CC)cc2c1O | 0.482 µM | 78.7 ± 3.3% | 49.9% | 61.3% | 62.8%
25 | CN(N=O)C1=C(NC2CCCCC2)C(=O)c2ccccc2C1=O | 1.52 µM | 57.2 ± 5.8% | 33.3% | 57.9% | 65.4%
26 | COc1ccccc1CNC(=O)CCn1c(=O)[nH]c2ccccc2c1=O | 0.663 µM | 79.9 ± 5.7% | 8.85% | 11.5% | 18.6%
27 | CC(C)(C)c1ccc(C2CC3=Nc4ccccc4N(C(=O)c4ccccc4Cl)C(c4ccc(F)cc4)C3=C(O)C2)cc1 (configuration not stated) | 3.41 µM | 68.4 ± 10% | < 0% | 5.12% | 41.6%
28 | CCOc1ccc(C2N(C)c3ccccc3N2C)cc1 | 5.84 µM | 49.6 ± 43% | 15.8% | 20.8% | 40.5%
29 | CC(C)(C)CC(C)(C)NCC(O)COc1ccc2c(c1)CCC2 (configuration not stated) | 4.38 µM | 61.6 ± 1.5% | 17.3% | 26.1% | 47.6%
30 | O=C(NCc1ccco1)C1CCN(S(=O)(=O)c2ccc(Cl)cc2)CC1 | 1.03 µM | 55.4 ± 6.6% | 21.3% | 34.6% | 57.8%
31 | OC1CCCCC1C1(NC(=S)Nc2ccccc2)CCCCC1 (configuration not stated) | 1.51 µM | 64 ± 2.9% | 23.3% | 45.7% | 53.4%
32 | CCCCN(CCCC)S(=O)(=O)c1ccc(NC(=O)c2ccco2)cc1 | 1.53 µM | 74.8 ± 2.1% | 20% | 26.6% | 50.7%
33 | COc1ccc2nc(C)cc(Nc3ccccc3O)c2c1 | 0.438 µM | 22.7 ± 2.9% | 20.4% | 41.3% | 66.3%
34 | COC(=O)c1ccc(C2C3=C(O)CC(c4ccc(F)cc4)CC3=Nc3ccccc3N2C(=O)c2ccccc2)cc1 (configuration not stated) | 6.36 µM | 61.3 ± 10% | 35.1% | 51.7% | 56%
35 | O=C(Nc1ccc(-c2nc3cc(NC(=O)c4ccc(Cl)cc4)ccc3[nH]2)cc1)c1ccc(Cl)cc1 |  | 21.6 ± 3% | < 0% | 18.9% | 41.1%
36 | Oc1ccc(C(=C(Cl)Cl)c2ccc(O)cc2)cc1 | 0.877 µM | 78.3 ± 3.7% | 11.4% | 53.3% | 73.2%
37 | CCOC(=O)c1cnc2ccc(OC)cc2c1Nc1ccc(N2CCN(C)CC2)cc1 | 2.98 µM | 24.9 ± 43% | 46.5% | 63.7% | 78.1%
